Assay results reported in patent US11925450B2, “Methods and apparatus for guiding medical care based on detected gastric function” (Gravitas Medical, Inc., priority 2011, dated 2024).
Read-outs that look alike come from different tables or passages of the source.

How the values were obtained:
[1] = cited from earlier work
[2] = in vivo; cited from earlier work
[3] = tested on: gastric juice pH; conditions: 30 ml of 0.3 M, pretreatment in elective cesarean section patients; cited from earlier work
[4] = tested on: gastric juice pH; conditions: cited from earlier work
[5] = cited from earlier work; for Volume of HCl neutralized by 30 ml: 30 ml (sodium citrate 0.3M)
[6] = approximately 5 ml of 8.4% solution
Experimental: In particular, 5 mls of this 8.4% solution can be administered into a patient's stomach at least 15 minutes prior to baseline measurement of gastric juice pH and administration of stimulant, such as pentagastrin.

For `NCCc1c[nH]cn1` [histamine], the side effects ([1]; large doses) is given as “severe hypotension”.

In the case of `CSCC[C@H](NC(=O)[C@H](Cc1c[nH]c2ccccc12)NC(=O)CCNC(=O)OC(C)(C)C)C(=O)N[C@@H](CC(=O)O)C(=O)N[C@@H](Cc1ccccc1)C(N)=O` [pentagastrin], the half-life [2] is given as “approximately 10 minutes”, the safety profile ([1]; in vivo) is given as “very good safety profile” and the side effects ([1]; intravenous 0.5 mcg/kg bolus over 30 seconds) is given as “abdominal fullness and an urge to defecate”. The side effects ([1]; intravenous administration) was “transient mild side effects, e.g., anxiety, palpitations”.

In the case of `O=C([O-])CC(O)(CC(=O)[O-])C(=O)[O-].[Na+].[Na+].[Na+]` [Sodium Citrate, sodium citrate], the “change in gastric juice pH” value [3] is listed as “significant increase in gastric juice pH”, the “gastric juice pH, mean after administration” value ([4]; 50 ml of 0.3 M into the stomach via nasogastric tube, within two minutes, baseline 1.2±0.1) is listed as 4.8 and the “gastric juice pH, range after administration” value ([4]; 50 ml of 0.3 M via nasogastric tube, within two minutes) is listed as 6.7-7.0. For the same compound, the “time gastric juice pH maintained above 6” value ([4]; 50 ml of 0.3 M) was “at least 2 hours”, the “gastric juice pH maintained after administration” value ([4]; 50 ml of 0.3 M, for at least 2 hours) was “above 6” and the “Volume of HCl neutralized by 30 ml” value ([5]; HCl pH 0.8) was 140 mL. For the same compound, the “Volume of HCl neutralized by 30 ml” value ([5]; HCl pH 1 (1.0)) was 255 mL, the “Volume of HCl neutralized by 30 ml” value ([5]; HCl pH 1 (1.0), listed as sodium citrate) was “up to 255 ml” and the “Volume of HCl neutralized by 30 ml” value ([5]; HCl pH 1.5) was 750 mL. The “pH (value in parentheses after the antacid's name)” value ([5]; presumably pH of the antacid itself, not explained) was “Sodium Citrate (8.5)”.

With `O=C([O-])O.[Na+]` [sodium bicarbonate] the “volume of gastric juice (pH 1.0) neutralized” value [6] was 50 ml.

In the case of `Cl.Cl.NCCc1ccn[nH]1` [betazole hydrocholoride], the side effects ([1]; orally administered) is listed as “few side effects”.
